Measurements from patent US20080166805A1, “Culturing human cells and tissues in an N-glycolylneuraminic acid-free environment” (The Regents of the University of California, priority 2005, published 2008).

Key:
[1] = test system: human LB EBV-transformed lymphoblasts; test: Neu5Gc/Neu5Ac feeding experiment, human EBV-transformed lymphoblasts; type: cell-based; conditions: human lymphoblasts fed 3 mM for 3 days
Protocol: (§1) Cell Culture—Caco-2 cells were propagated in alpha-MEM containing GLUTAMAX™ (Invitrogen, San Diego, Calif.) and a mixture of ribonucleosides and deoxyribonucleosides (Gibco/Invitrogen, San Diego, Calif.) supplemented with 20% FCS. All the fibroblast cell lines and CHO-K1 cells were cultured in the same media supplemented respectively with 15% non-heat inactivated FCS or 10% heat inactivated FCS. Chimpanzee Fred and human […] EBV-transformed lymphoblasts were cultured in RPMI-1640 (Gibco/Invitrogen, San Diego, Calif.) supplemented with 10% heat inactivated FCS or 15% human serum. All of the cultures were maintained at 37° C., 5% CO2 atmosphere. In order to deplete any remaining Neu5Gc from FCS, the cells were split and cultured prior to Neu5Gc feeding experiments for at least 4 days in alpha-MEM supplemented with an adequate percentage of heat-inactivated premium human serum instead of FCS. The cells were then maintained under the same conditions during the whole feeding experiment. The human serum was heat inactivated at 56° C. for 30 min. before use.
(§2) Neu5Gc and ManNGc Feeding Experiment—Neu5Ac, Neu5Gc or ManNGc were dried, dissolved in the appropriate media supplemented with heat-inactivated human serum, sterilized using a Spin-X® (Corning Inc., Corning, N.Y.) and then added to the cells. The pH of the media containing Sia was adjusted to neutrality using sterilized 1M NaOH before starting the feeding experiment. Cells were cultured in the presence of up to 3 mM free Sia or ManNGc for 1 or 3 days at 37° C. […]
(§3) Fractionation of the Labeled Cells—Washed cell pellets were sonicated into 500 μL of 20 mM sodium phosphate buffer or 20 mM Tris-HCl, pH 7.5, using 4×15 second pulses of a sonicator cell disrupter, model Some Dismembrator (Fisher Scientific, Hampton, N.J.) at a probe setting of 3. […] The pellet contained <5% of the incorporated sialic acid as determined using a radioactive tracer (data not shown.) The supernatant was therefore considered as the “total homogenate” fraction. A portion (20%) of the “total homogenate” fraction was taken for protein quantification and Sia analysis by DMB derivatization and HPLC analysis (as discussed below.) The remainder was centrifuged at 100,000×g for 1 h. […] All the Sias in these fractions were released with mild acid hydrolysis if necessary and then analyzed by HPLC after DMB derivatization. Protein quantification was performed on the total homogenate, membrane and soluble protein fractions by using the BCA protein assay kit from Pierce (Rockford, Ill.) In some experiments, the resulting data obtained for the Sia bound to the membrane fraction and to the soluble proteins were pooled and presented here as a High Molecular Weight (HMW) fraction. […]

[2] = test system: chimpanzee lymphoblasts; test: Neu5Gc/Neu5Ac feeding experiment, chimpanzee EBV-transformed lymphoblasts; type: cell-based; conditions: chimpanzee lymphoblasts fed 3 mM for 3 days
Protocol: as §1, §2, §3

[3] = test system: Caco-2 cells; test: Competition of free Neu5Ac with free Neu5Gc for incorporation into Caco-2 cells; type: cell-based, human; conditions: 3 mM Neu5Gc for 3 days
Protocol: Neu5Gc and ManNGc Feeding Experiment—Neu5Ac, Neu5Gc or ManNGc were dried, dissolved in the appropriate media supplemented with heat-inactivated human serum, sterilized using a Spin-X® (Corning Inc., Corning, N.Y.) and then added to the cells. The pH of the media containing Sia was adjusted to neutrality using sterilized 1M NaOH before starting the feeding experiment. Cells were cultured in the presence of up to 3 mM free Sia or ManNGc for 1 or 3 days at 37° C. At the end of the feeding, cells were washed with cold PBS, harvested either by scraping or with 2 mM EDTA for fibroblasts, and washed again with cold PBS prior to fractionation.
Fractionation of the Labeled Cells—Washed cell pellets were sonicated into 500 μL of 20 mM sodium phosphate buffer or 20 mM Tris-HCl, pH 7.5, using 4×15 second pulses of a sonicator cell disrupter, model Some Dismembrator (Fisher Scientific, Hampton, N.J.) at a probe setting of 3. The sonicate was centrifuged at 75×g for 15 min., and the pellet obtained consisted primarily of nuclei and unbroken cells. The pellet contained <5% of the incorporated sialic acid as determined using a radioactive tracer (data not shown.) The supernatant was therefore considered as the “total homogenate” fraction. A portion (20%) of the “total homogenate” fraction was taken for protein quantification and Sia analysis by DMB derivatization and HPLC analysis (as discussed below.) The remainder was centrifuged at 100,000×g for 1 h. The resulting pellet, called the “membrane” fraction, was then resuspended by sonication (15 sec.) in 200 μl of sodium acetate buffer, pH 5.5. The 100,000×g supernatant, called the “soluble” fraction was adjusted to 90% ethanol using absolute ice-cold ethanol, and placed overnight at −20° C. The flocculant precipitate, which represents the “soluble protein” fraction, was washed 3 times with 90% ice-cold ethanol and then resuspended in 200 μl of water. The supernatant fluid representing the cytosolic low molecular weight (LMW) fraction was dried and brought up in 100 μL with water prior to Sia analysis. All the Sias in these fractions were released with mild acid hydrolysis if necessary and then analyzed by HPLC after DMB derivatization. Protein quantification was performed on the total homogenate, membrane and soluble protein fractions by using the BCA protein assay kit from Pierce (Rockford, Ill.) In some experiments, the resulting data obtained for the Sia bound to the membrane fraction and to the soluble proteins were pooled and presented here as a High Molecular Weight (HMW) fraction.
Sialic Acid Release, DMB Derivatization and HPLC Analysis—The bound Sias from the total homogenate, membrane and soluble protein fractions were released using 2M acetic acid hydrolysis, 3 h. at 80° C. The released Sias, or free Sias, contained in the soluble LMW fraction were passed through a Microcon® YM-10 filter (Millipore, Bedford, Mass.) prior to DMB derivatization, which was done according to Hara et al., 1989. DMB-Sia derivatives from the different fractions were then analyzed by HPLC using a C18 column (Microsorb Mv-TM 100 A, Varian, Palo Alto, Calif.) Isocratic elution was achieved using 7% methanol, 8% acetonitrile in water during 50 min. at 0.9 ml/min flow. The eluant was monitored by fluorescence.
Quantification of Sias—For all HPLC chromatograms, the quantification of Sias was done by comparison with known quantities of DMB derivatized Neu5Gc and Neu5Ac used as standards and then reported in terms of pmoles of Sia. For total homogenate, membrane and cytosolic protein fractions, this number was expressed per mg of protein. Due to minor sample-to-sample variations in amounts and recoveries, the data in the Figures is presented as percent of Neu5Gc over total Sias, rather than as absolute amounts.

[4] = test system: Caco-2 cells; test: Endocytosis inhibition experiments (Neu5Gc uptake in Caco-2 cells); type: cell-based, human; conditions: 3 mM Neu5Gc, no inhibitor
Protocol: The sonicate was centrifuged at 75×g for 15 min., and the pellet obtained consisted primarily of nuclei and unbroken cells. […] A portion (20%) of the “total homogenate” fraction was taken for protein quantification and Sia analysis by DMB derivatization and HPLC analysis (as discussed below.) The remainder was centrifuged at 100,000×g for 1 h. The resulting pellet, called the “membrane” fraction, was then resuspended by sonication (15 sec.) in 200 μl of sodium acetate buffer, pH 5.5. The 100,000×g supernatant, called the “soluble” fraction was adjusted to 90% ethanol using absolute ice-cold ethanol, and placed overnight at −20° C. The flocculant precipitate, which represents the “soluble protein” fraction, was washed 3 times with 90% ice-cold ethanol and then resuspended in 200 μl of water. The supernatant fluid representing the cytosolic low molecular weight (LMW) fraction was dried and brought up in 100 μL with water prior to Sia analysis. All the Sias in these fractions were released with mild acid hydrolysis if necessary and then analyzed by HPLC after DMB derivatization. Protein quantification was performed on the total homogenate, membrane and soluble protein fractions by using the BCA protein assay kit from Pierce (Rockford, Ill.) In some experiments, the resulting data obtained for the Sia bound to the membrane fraction and to the soluble proteins were pooled and presented here as a High Molecular Weight (HMW) fraction. Sialic Acid Release, DMB Derivatization and HPLC Analysis—The bound Sias from the total homogenate, membrane and soluble protein fractions were released using 2M acetic acid hydrolysis, 3 h. at 80° C. The released Sias, or free Sias, contained in the soluble LMW fraction were passed through a Microcon® YM-10 filter (Millipore, Bedford, Mass.) prior to DMB derivatization, which was done according to Hara et al., 1989. […] The eluant was monitored by fluorescence. Quantification of Sias—For all HPLC chromatograms, the quantification of Sias was done by comparison with known quantities of DMB derivatized Neu5Gc and Neu5Ac used as standards and then reported in terms of pmoles of Sia. For total homogenate, membrane and cytosolic protein fractions, this number was expressed per mg of protein. Due to minor sample-to-sample variations in amounts and recoveries, the data in the Figures is presented as percent of Neu5Gc over total Sias, rather than as absolute amounts. Endocytosis Inhibition Experiments—Caco-2 or normal fibroblast cells were split and cultured in alpha-MEM media supplemented respectively with 20% or 15% human serum for 4 days before starting the endocytosis drug inhibition experiments in order to deplete any Neu5Gc derived from FCS. Cells were then pre-treated for 2 h. with the specific inhibitors under the same culture conditions. Fresh media containing the same amount of inhibitor and 3 mM of Neu5Gc was then added to the cells, which were incubated for 16 h or 3 days and finally harvested and fractionated as described above.

[5] = test system: lysosomal sialic acid transporter mutant human fibroblasts (GM05520); test: Neu5Gc/ManNGc feeding, lysosomal sialic acid transporter mutant fibroblasts GM05520; type: cell-based; conditions: GM05520 (ISSD) fibroblasts fed 3 mM for 3 days
From the text: (§4) Cell Lines—Caco-2 cells (human epithelial cells isolated from a primary colon carcinoma), normal human skin fibroblasts (CCD-919-SK) and chinese hamster ovary (CHO-K1) cells were purchased from ATCC (Manassas, Va.) Mutant human skin fibroblasts (GM05520, GM08496 and GM01718) were obtained from the Coriell Institute for Medical Research (Camden, N.J.) Chimpanzee Fred and human […] EBV-transformed lymphoblasts were a gift from Dr. Peter Parham, Stanford University, CA. […]
(§5) Fractionation of the Labeled Cells—Washed cell pellets were sonicated into 500 μL of 20 mM sodium phosphate buffer or 20 mM Tris-HCl, pH 7.5, using 4×15 second pulses of a sonicator cell disrupter, model Some Dismembrator (Fisher Scientific, Hampton, N.J.) at a probe setting of 3. […] The pellet contained <5% of the incorporated sialic acid as determined using a radioactive tracer (data not shown.) The supernatant was therefore considered as the “total homogenate” fraction. A portion (20%) of the “total homogenate” fraction was taken for protein quantification and Sia analysis by DMB derivatization and HPLC analysis (as discussed below.) The remainder was centrifuged at 100,000×g for 1 h. […] All the Sias in these fractions were released with mild acid hydrolysis if necessary and then analyzed by HPLC after DMB derivatization. […]

[6] = test system: lysosomal sialic acid transporter mutant human fibroblasts (GM08496); test: Neu5Gc/ManNGc feeding, lysosomal sialic acid transporter mutant fibroblasts GM08496; type: cell-based; conditions: GM08496 (Salla disease) fibroblasts fed 3 mM for 3 days
From the text: as §4, §5

`O=C(CO)N[C@H]1[C@H]([C@H](O)[C@H](O)CO)OC(O)(C(=O)O)C[C@@H]1O` (stereo partly shown) [Neu5Gc, N-glycolylneuraminic acid] was tested, and the “Neu5Gc as percent of total Sia, LMW cytosolic fraction” value [1] was 80%, the “Neu5Gc as percent of total Sia, TH fraction” value [1] was 67% and the “Neu5Gc as percent of total Sia, TH fraction” value ([2]; non-fed baseline 57%) was 70%. For the same compound, the “Neu5Gc as percent of total Sia, HMW fraction” value ([2]; non-fed baseline 66%) was 72%, the “Neu5Gc as percent of total Sia, LMW fraction” value ([2]; non-fed baseline 70%) was 84% and the “Neu5Gc as percent of total Sia, membrane-bound fraction” value ([3]; no added Neu5Ac) was 41%. For the same compound, the “Neu5Gc as percent of total Sia, TH” value ([3]; no added Neu5Ac (baseline incorporation)) was 56%, the “Neu5Gc incorporation into membrane-bound glycoconjugates without inhibitor (percent of total Sia)” value [4] was 45% and the “percent of Neu5Gc in membrane-bound glycoconjugates” value [5] was 5%. For the same compound, the “percent of Neu5Gc in membrane-bound glycoconjugates” value [6] was 16%.
